Reference: publication PMC10070484, “Structure and mechanism of oxalate transporter OxlT in an oxalate-degrading bacterium in the gut microbiota” (Nature Communications, 2023)

Experiments:
Assay in all cases: GFP thermal shift (GFP-TS)
Type in all cases: binding
Conditions in all cases: 3 mM potassium oxalate; crude DDM-solubilised OxlT-GFPuv from E. coli membranes; 300 mM potassium acetate, pH 7.0
OxlT [1] = biological target: T1, OxlT (Oxalobacter formigenes, UniProt Q51330, W352A)
T1 construct: full-length; C-terminal nona-His tag from E. coli XL3 (crystal, purified); C-terminal GFPuv fusion from E. coli BL21(DE3) in DDM (GFP-TS); pRSF-OxlT for transport; monomer

OxlT [2] = biological target: T2, OxlT (Oxalobacter formigenes, UniProt Q51330)
T2 construct: full-length; C-terminal nona-His tag from E. coli XL3 (crystal, purified); C-terminal GFPuv fusion from E. coli BL21(DE3) in DDM (GFP-TS); pRSF-OxlT for transport; monomer
T2 sequence (Q51330 1-418): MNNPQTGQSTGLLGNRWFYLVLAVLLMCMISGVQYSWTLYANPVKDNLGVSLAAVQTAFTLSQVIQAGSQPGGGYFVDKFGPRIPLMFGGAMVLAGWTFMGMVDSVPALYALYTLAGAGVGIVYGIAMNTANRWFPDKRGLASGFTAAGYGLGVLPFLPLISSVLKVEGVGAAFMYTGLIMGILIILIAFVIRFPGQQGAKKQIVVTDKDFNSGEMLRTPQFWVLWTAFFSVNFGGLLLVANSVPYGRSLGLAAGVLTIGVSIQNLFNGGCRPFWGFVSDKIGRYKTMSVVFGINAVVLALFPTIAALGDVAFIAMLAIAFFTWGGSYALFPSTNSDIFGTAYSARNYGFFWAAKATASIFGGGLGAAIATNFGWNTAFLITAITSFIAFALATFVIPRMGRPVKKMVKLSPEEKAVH

OxlT [3] = biological target: T3, OxlT (Oxalobacter formigenes, UniProt Q51330, K355Q)
T3 construct: full-length; C-terminal nona-His tag from E. coli XL3 (crystal, purified); C-terminal GFPuv fusion from E. coli BL21(DE3) in DDM (GFP-TS); pRSF-OxlT for transport; monomer

OxlT [4] = biological target: T4, OxlT (Oxalobacter formigenes, UniProt Q51330, Q34A)
T4 construct: full-length; C-terminal nona-His tag from E. coli XL3 (crystal, purified); C-terminal GFPuv fusion from E. coli BL21(DE3) in DDM (GFP-TS); pRSF-OxlT for transport; monomer

OxlT [5] = biological target: T5, OxlT (Oxalobacter formigenes, UniProt Q51330, Y124A)
T5 construct: full-length; C-terminal nona-His tag from E. coli XL3 (crystal, purified); C-terminal GFPuv fusion from E. coli BL21(DE3) in DDM (GFP-TS); pRSF-OxlT for transport; monomer

OxlT [6] = biological target: T6, OxlT (Oxalobacter formigenes, UniProt Q51330, Y328A)
T6 construct: full-length; C-terminal nona-His tag from E. coli XL3 (crystal, purified); C-terminal GFPuv fusion from E. coli BL21(DE3) in DDM (GFP-TS); pRSF-OxlT for transport; monomer

OxlT [7] = biological target: T7, OxlT (Oxalobacter formigenes, UniProt Q51330, R272A)
T7 construct: full-length; C-terminal nona-His tag from E. coli XL3 (crystal, purified); C-terminal GFPuv fusion from E. coli BL21(DE3) in DDM (GFP-TS); pRSF-OxlT for transport; monomer

OxlT [8] = biological target: T8, OxlT (Oxalobacter formigenes, UniProt Q51330, Y35A)
T8 construct: full-length; C-terminal nona-His tag from E. coli XL3 (crystal, purified); C-terminal GFPuv fusion from E. coli BL21(DE3) in DDM (GFP-TS); pRSF-OxlT for transport; monomer

OxlT [9] = biological target: T9, OxlT (Oxalobacter formigenes, UniProt Q51330, W324A)
T9 construct: full-length; C-terminal nona-His tag from E. coli XL3 (crystal, purified); C-terminal GFPuv fusion from E. coli BL21(DE3) in DDM (GFP-TS); pRSF-OxlT for transport; monomer

OxlT [10] = biological target: T10, OxlT (Oxalobacter formigenes, UniProt Q51330, Y150A)
T10 construct: full-length; C-terminal nona-His tag from E. coli XL3 (crystal, purified); C-terminal GFPuv fusion from E. coli BL21(DE3) in DDM (GFP-TS); pRSF-OxlT for transport; monomer

OxlT [11] = biological target: T11, OxlT (Oxalobacter formigenes, UniProt Q51330, N268A)
T11 construct: full-length; C-terminal nona-His tag from E. coli XL3 (crystal, purified); C-terminal GFPuv fusion from E. coli BL21(DE3) in DDM (GFP-TS); pRSF-OxlT for transport; monomer
T11 sequence (Q51330 whole entry N268A, the tested form may be a part): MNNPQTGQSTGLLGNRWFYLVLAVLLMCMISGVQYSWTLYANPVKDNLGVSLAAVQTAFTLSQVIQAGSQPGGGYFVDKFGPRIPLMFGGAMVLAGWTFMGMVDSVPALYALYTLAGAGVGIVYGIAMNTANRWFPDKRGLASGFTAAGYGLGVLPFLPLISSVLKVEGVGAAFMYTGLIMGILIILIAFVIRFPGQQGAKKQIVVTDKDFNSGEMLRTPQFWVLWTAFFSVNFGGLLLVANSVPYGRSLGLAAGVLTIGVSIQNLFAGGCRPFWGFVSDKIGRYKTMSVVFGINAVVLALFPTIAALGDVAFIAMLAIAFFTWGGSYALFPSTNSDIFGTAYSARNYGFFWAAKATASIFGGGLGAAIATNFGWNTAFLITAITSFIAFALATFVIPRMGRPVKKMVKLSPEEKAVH

T9 sequence (Q51330 whole entry W324A, the tested form may be a part): as the sequence (Q51330 whole entry N268A, the tested form may be a part) above, with A268N, W324A counted along it
T1 sequence (Q51330 whole entry W352A, the tested form may be a part): as the sequence (Q51330 whole entry N268A, the tested form may be a part) above, with A268N, W352A counted along it
T6 sequence (Q51330 whole entry Y328A, the tested form may be a part): as the sequence (Q51330 whole entry N268A, the tested form may be a part) above, with A268N, Y328A counted along it
T10 sequence (Q51330 whole entry Y150A, the tested form may be a part): as the sequence (Q51330 whole entry N268A, the tested form may be a part) above, with Y150A, A268N counted along it
T5 sequence (Q51330 whole entry Y124A, the tested form may be a part): as the sequence (Q51330 whole entry N268A, the tested form may be a part) above, with Y124A, A268N counted along it
T7 sequence (Q51330 whole entry R272A, the tested form may be a part): as the sequence (Q51330 whole entry N268A, the tested form may be a part) above, with A268N, R272A counted along it
T3 sequence (Q51330 whole entry K355Q, the tested form may be a part): as the sequence (Q51330 whole entry N268A, the tested form may be a part) above, with A268N, K355Q counted along it
T4 sequence (Q51330 whole entry Q34A, the tested form may be a part): as the sequence (Q51330 whole entry N268A, the tested form may be a part) above, with Q34A, A268N counted along it
T8 sequence (Q51330 whole entry Y35A, the tested form may be a part): as the sequence (Q51330 whole entry N268A, the tested form may be a part) above, with Y35A, A268N counted along it

O=C(O)C(=O)O [oxalate]
dTm (OxlT [1]): Y328A and W352A showed similar oxalate binding but reduced oxalate uptake activities
dTm (OxlT [2]): In the GFP-TS assay, wild-type OxlT exhibited thermal stabilisation upon oxalate binding.
dTm (OxlT [3]): reduced in the mutant OxlT proteins Q34A, Y35A, Y124A, Y150A, N268A, R272A, W324A and K355Q
dTm (OxlT [4]): reduced in the mutant OxlT proteins Q34A, Y35A, Y124A, Y150A, N268A, R272A, W324A and K355Q
dTm (OxlT [5]): reduced in the mutant OxlT proteins Q34A, Y35A, Y124A, Y150A, N268A, R272A, W324A and K355Q
dTm (OxlT [6]): Y328A and W352A showed similar oxalate binding but reduced oxalate uptake activities
dTm (OxlT [7]): reduced in the mutant OxlT proteins Q34A, Y35A, Y124A, Y150A, N268A, R272A, W324A and K355Q
dTm (OxlT [8]): reduced in the mutant OxlT proteins Q34A, Y35A, Y124A, Y150A, N268A, R272A, W324A and K355Q
dTm (OxlT [9]): reduced in the mutant OxlT proteins Q34A, Y35A, Y124A, Y150A, N268A, R272A, W324A and K355Q
dTm (OxlT [10]): reduced in the mutant OxlT proteins Q34A, Y35A, Y124A, Y150A, N268A, R272A, W324A and K355Q
dTm (OxlT [11]): reduced in the mutant OxlT proteins Q34A, Y35A, Y124A, Y150A, N268A, R272A, W324A and K355Q
